{
  "source": "patent US20230133538A1",
  "about": "“TARGETED DEGRADERS OF ABERRANT TAU BASED ON THE PET TRACER PBB3” (DANA-FARBER CANCER INSTITUTE, INC., priority 2020, published 2023)",
  "key": {"[1]": {"molecular_target": "T1, tau protein in human tau-A152T neurons (Homo sapiens, UniProt P10636, A469T)", "T1 construct": "degrade tau protein in cultured human differentiated frontotemporal lobar dementia (FTD) neurons; endogenous in cells; host or cells: human differentiated FTD neurons, tau-A152T, 6-week differentiated", "T1 sequence (P10636 1-441 isoform P10636-8 A152T)": "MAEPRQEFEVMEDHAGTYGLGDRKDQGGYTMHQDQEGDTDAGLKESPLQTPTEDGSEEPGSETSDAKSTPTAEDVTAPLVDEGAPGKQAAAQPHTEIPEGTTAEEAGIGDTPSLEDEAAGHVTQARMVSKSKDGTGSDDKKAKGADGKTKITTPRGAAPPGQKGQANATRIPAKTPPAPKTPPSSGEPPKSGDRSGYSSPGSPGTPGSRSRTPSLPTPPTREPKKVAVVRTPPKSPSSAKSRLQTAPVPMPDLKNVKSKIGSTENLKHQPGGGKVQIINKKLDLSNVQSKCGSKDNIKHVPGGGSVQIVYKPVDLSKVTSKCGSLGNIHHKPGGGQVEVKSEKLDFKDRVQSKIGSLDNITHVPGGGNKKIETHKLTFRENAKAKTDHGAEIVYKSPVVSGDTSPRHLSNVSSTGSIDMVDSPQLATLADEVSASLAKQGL", "experiment": "Dose-effect on tau in tau-A152T neurons (Western blot, total tau TAU5 and P-Tau S396)", "assay_type": "cell-based", "conditions": "human tau-A152T neurons (6-week differentiated), 24 hours treatment, 1 μM or 10 μM", "method": "(§1) Assays were performed according to protocols described in Silva et al., eLife, 8:e45457 (2019). Each of the bispecific compounds, along with the control parental scaffold, was evaluated for the ability to degrade tau protein in cultured human differentiated frontotemporal lobar dementia (FTD) neurons.\n(§2) For each condition, 1 well of differentiated neuronal cells (6 well-plate) was washed and collected in PBS, pelleted and lysed in radioimmunoprecipitation assay (RIPA) buffer (Boston BioProducts) with 2% SDS (Sigma), protease inhibitors (Roche cOmplete™ Mini tablets), and phosphatase inhibitors (Sigma), followed by sonication in a water sonicator (Bransonic® Ultrasonic Baths, Thomas Scientific) for 5 minutes, and centrifugation at 20,000 g for 15 minutes. Supernatants were transferred to new tubes, total protein concentration was quantified with the Pierce™ BCA Protein Assay Kit (Thermo Scientific™), and SDS-PAGE gels were loaded with 10 μg total protein per well (pre-boiled samples). Western blots were performed with the Novex NuPAGE™ SDS-PAGE Gel System (Invitrogen™). All samples were resolved in 7% Tris-Acetate gels with Tris-Acetate running buffer (Invitrogen™). Blots were probed with antibodies against total tau (TAU5) and phosphorylated tau (Ser396), along with (3-actin as a loading control; followed by corresponding HRP-linked secondary antibodies (Cell Signaling Technology®), and SuperSignal™ West Pico Chemiluminescent Substrate (Thermo Scientific™) detection. Membranes were exposed to autoradiographic film (LabScientific) and films were scanned using an Epson® Perfection V800 Photo Scanner. Protein band intensities (pixel mean intensity) were quantified using Adobe Photoshop® CS5 Histogram function.\n(§3) The vehicle alone (DMSO) had no effect on tau. However, varying degrading activity was observed among the specific compounds with overall similar relative levels of degrading activity between tau-A152T neurons and tau-P301L neurons. Bispecific compounds were added at the doses indicated (either 1 μM or 10 μM)."}, "[2]": {"molecular_target": "T2, tau protein in human tau-P301L neurons (Homo sapiens, UniProt P10636, P618L)", "T2 construct": "degrade tau protein in cultured human differentiated frontotemporal lobar dementia (FTD) neurons; endogenous in cells; host or cells: human differentiated FTD neurons, tau-P301L, 6-week differentiated", "T2 sequence (P10636 1-441 isoform P10636-8 P301L)": "as the sequence (P10636 1-441 isoform P10636-8 A152T) above, with T152A, P301L counted along it", "experiment": "Dose-effect on tau in tau-P301L neurons (Western blot, total tau TAU5 and P-Tau S396)", "assay_type": "cell-based", "conditions": "human tau-P301L neurons (6-week differentiated), 24 hours treatment, 1 μM or 10 μM", "method": "as §1, §2, §3"}},
  "data": [
    {"smiles": "Nc1cccc2c1CN(C1CCC(=O)NC1=O)C2=O", "note": "(stereo not drawn) [Lenalidomide, reference compound]", "values": [
      {"measurement": "degradation of hyperphosphorylated tau and/or total tau", "setting": "[1]", "result": "no effect on tau levels"},
      {"measurement": "degradation of hyperphosphorylated tau and/or total tau", "setting": "[2]", "result": "no effect on tau levels"}
    ]},
    {"smiles": "CNc1ccc(/C=C/C=C/c2nc3ccc(OCCCCCCNC(=O)COc4cccc5c4C(=O)N(C4CCC(=O)NC4=O)C5=O)cc3s2)cn1", "note": "(stereo not drawn) [compound 2, 2-(2-(2,6-dioxopiperidin-3-yl)-1,3-dioxoisoindolin-4-yloxy)-N-(6-(2-((1E,3E)-4-(6-(methylamino)pyridin-3-yl)buta-1,3-dienyl)benzo[d]thiazol-6-yloxy)hexyl)acetamide]", "values": [
      {"measurement": "degradation of hyperphosphorylated tau and/or total tau", "setting": "[1]", "result": "significantly degraded"},
      {"measurement": "degradation of hyperphosphorylated tau and/or total tau", "setting": "[2]", "result": "significantly degraded"}
    ]},
    {"smiles": "CNc1ccc(/C=C/C=C/c2nc3ccc(OCCOCCOCCNC(=O)COc4cccc5c4C(=O)N(C4CCC(=O)NC4=O)C5=O)cc3s2)cn1", "note": "(stereo not drawn) [compound 4, 2-(2-(2,6-dioxopiperidin-3-yl)-1,3-dioxoisoindolin-4-yloxy)-N-(2-(2-(2-(2-((1E,3E)-4-(6-(methylamino)pyridin-3-yl)buta-1,3-dienyl)benzo[d]thiazol-6-yloxy)ethoxy)ethoxy)ethyl)acetamide]", "values": [
      {"measurement": "degradation of hyperphosphorylated tau and/or total tau", "setting": "[1]", "result": "significantly degraded"},
      {"measurement": "degradation of hyperphosphorylated tau and/or total tau", "setting": "[2]", "result": "significantly degraded"}
    ]}
  ]
}
